# Assays:
# hRpn13_ΔMTT [1] = molecular target: T1, hRpn13_ΔMTT (Homo sapiens, UniProt Q16186); test: 1H-15N HSQC NMR, K48-diUb constructs with hRpn13_ΔMTT; assay type: binding; details: 100 μM 15N-hRpn13_ΔMTT, varying K48-diUb concentrations
# T1 construct: recombinant plasmid of hRpn13 Pru (1–150) cloned into the pRSET vector; GST (N, cleaved yes); residual Gly-Ser (^cG-^dS) left after cleavage; made in house; host or cells: Escherichia coli BL21 (DE3); pGEX-4T-1 plasmid synthesized by GenScript (Addgene 237412)
# Procedure: To test further whether peptide binding can influence hRpn13 Pru interaction with ubiquitin, we generated K48-linked diubiquitin in which the distal moiety (linked via G76) is extended by a 6-residue linker sequence of GSGGSG followed by either the ENT (K48-diUb^ENT) or EDGEGEE (K48-diUb^EDGEGEE) sequence. Varying concentrations of K48-diUb^ENT, K48-diUb^EDGEGEE, or K48-diUb^D77 were added to 100 μM ^15N-labeled hRpn13_ΔMTT and effects on hRpn13 monitored by recording ^1H-^15N HSQC spectra.
# K48-diUb samples were produced by using a similar method as previously described. Briefly, Ub-D77 (proximal), Ub-ENT (proximal), Ub-EDGEGEE (proximal) and Ub-K48R (distal) were added at a final concentration of 0.8 mM to a reaction buffer (50 mM Tris pH 8.0, 5 mM MgCl2, 10 mM creatine phosphate, 0.6 U/mL inorg. PPase, 0.6 U/mL creatine kinase, 2 mM ATP) preincubated with 20 μM E2-25K. 0.1 μM E1 (R&D Systems) was added to this reaction system to initiate diUb synthesis, and it was left for 18 h at 37 °C. The reaction was quenched by dilution with 4 volumes of 50 mM sodium acetate (pH 4.5) and passed over a Mono S 5/50 GL column (GE Healthcare). Further purification was achieved by SEC on a HiLoad 16/600 Superdex 75 prep grade column (GE Healthcare) in buffer C.
# (§1) All ^1H-^15N HSQC experiments were acquired on samples dissolved in NMR buffer (20 mM sodium phosphate, pH 6.5, 50 mM NaCl, 1 mM TCEP, 10% D2O) unless specified, in which case 2 mM DTT replaced TCEP. The samples were purified in DTT-containing buffer and then exchanged into NMR buffer by using Zeba Protein Desalting columns (Thermo Fisher Scientific). The pH was measured and adjusted to 6.5. All NMR experiments were performed at 25 °C on a Bruker Advance 600 MHz spectrometer equipped with a cryogenically cooled probe. The data were processed by NMRpipe[46] (version 11.5) and spectra visualized and analyzed with NMR-FAM-SPARKY[47] (version 3.190) by using previous chemical shift assignments[12],[23] and NMRbox[48]. The amide nitrogen and hydrogen chemical shift perturbations (CSP) were mapped for each amino acid according to Eq. 1.1 CSP=0.2ΔδN2+ΔδH2
# Supplementary Figure 13: NMR experiments of hRpn13 Pru binding to K48-diUb^EDGEGEE, K48-diUb^ENT or K48-diUb^D77. a) ^1H-^15N HSQC spectrum of 0.1 mM ^15N-labeled hRpn13_ΔMTT alone (black) or with equimolar K48-diUb^EDGEGEE (blue), K48-diUb^ENT (red) or K48-diUb^D77 (green). Select residues are labeled. The spectra were acquired on a 600 MHz spectrometer equipped with a cryogenically cooled probe and at 25°C samples with samples dissolved in 20 mM sodium phosphate, pH 6.5, 100 mM NaCl, 1 mM TCEP, 10% D2O.
# hRpn13_ΔMTT [2] = molecular target: T1, hRpn13_ΔMTT; test: 1H-15N HSQC NMR titration / chemical shift perturbation (CSP), 0.1 mM 15N-labeled hRpn13_ΔMTT with unlabeled peptide; assay type: binding; details: 20-fold molar excess peptide
# Procedure: The similar spectral effects by adding ENT or ENT_M1S is readily apparent by quantifying and plotting the shifting across the Pru amino acid sequence (Supplementary Fig. 10b, c).
# as §1
# ΔδH, change in amide proton value (in parts per million); ΔδN, change in amide nitrogen value (in parts per million).
# Supplementary Figure 9: 2D NMR experiments indicate ENT binding to hRpn13 Pru. a) ^1H-^15N HSQC spectrum of 0.1 mM ^15N-labeled hRpn13 (1-150, black) or hRpn13_ΔMTT (green). Select residues are labeled with amino acids in the Pru helix, proteasome binding region, and termini in blue, purple, and orange, respectively. Arrows indicate direction of shifting. b, c) ^1H-^15N HSQC spectra of 0.1 mM of ^15N-labeled hRpn13_ΔMTT alone (black) or with ENT present at equimolar (red), 2-fold (orange), 5-fold (yellow), 10-fold (green), 15-fold (blue), or 20-fold (purple) molar excess. […] All spectra were acquired at 600 MHz and 25°C in 20 mM sodium phosphate, pH 6.5, 100 mM NaCl, 1 mM TCEP, 10% D2O. ppm, part per million.
# T1 sequence (Q16186 4-150, stated change not applied): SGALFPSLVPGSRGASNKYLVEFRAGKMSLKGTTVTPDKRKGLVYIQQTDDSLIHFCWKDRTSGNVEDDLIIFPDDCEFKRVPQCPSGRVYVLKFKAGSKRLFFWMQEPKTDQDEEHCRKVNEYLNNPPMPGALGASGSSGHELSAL
substance,measurement,setting,value
K48-diUb^D77: K48-linked diubiquitin from Ub-D77 (proximal) and Ub-K48R (distal) [reference compound],ubiquitin contact surface binding (HSQC),hRpn13_ΔMTT [1],binding to ubiquitin was observed
"GPGSSTT [ENT_M1S, ENT M1 replaced with serine]",CSP A6,hRpn13_ΔMTT [2],0.001673
same,CSP A28,hRpn13_ΔMTT [2],0.004472
same,CSP A100,hRpn13_ΔMTT [2],0.001095
same,CSP A136,hRpn13_ΔMTT [2],0.001
same,CSP A139,hRpn13_ΔMTT [2],0.001342
same,CSP A149,hRpn13_ΔMTT [2],0.001342
same,CSP C60,hRpn13_ΔMTT [2],0.004494
same,CSP C80,hRpn13_ΔMTT [2],0.0004472
same,CSP C88,hRpn13_ΔMTT [2],0.005727
same,CSP C121,hRpn13_ΔMTT [2],0.01167
same,CSP D41,hRpn13_ΔMTT [2],0.0008944
same,CSP D53,hRpn13_ΔMTT [2],0.002049
same,CSP D54,hRpn13_ΔMTT [2],0.003347
same,CSP D63,hRpn13_ΔMTT [2],0.004919
same,CSP D71,hRpn13_ΔMTT [2],0.004147
same,CSP D72,hRpn13_ΔMTT [2],0.004583
same,CSP D78,hRpn13_ΔMTT [2],0.00502
same,CSP D79,hRpn13_ΔMTT [2],0.004472
same,CSP D115,hRpn13_ΔMTT [2],0.005385
same,CSP D117,hRpn13_ΔMTT [2],0.02256
same,CSP E25,hRpn13_ΔMTT [2],0.004472
same,CSP E70,hRpn13_ΔMTT [2],0.002683
same,CSP E81,hRpn13_ΔMTT [2],0.003715
same,CSP E111,hRpn13_ΔMTT [2],0.01001
same,CSP E118,hRpn13_ΔMTT [2],0.03156
same,CSP E119,hRpn13_ΔMTT [2],0.0177
same,CSP E146,hRpn13_ΔMTT [2],0.005177
same,CSP F8,hRpn13_ΔMTT [2],0.0004472
same,CSP F26,hRpn13_ΔMTT [2],0.01613
same,CSP F59,hRpn13_ΔMTT [2],0.004583
same,CSP F76,hRpn13_ΔMTT [2],0.008012
same,CSP F82,hRpn13_ΔMTT [2],0.002683
same,CSP F98,hRpn13_ΔMTT [2],0.005459
same,CSP F106,hRpn13_ΔMTT [2],0.003715
same,CSP F107,hRpn13_ΔMTT [2],0.002049
same,CSP G5,hRpn13_ΔMTT [2],0
same,CSP G17,hRpn13_ΔMTT [2],0.002236
same,CSP G29,hRpn13_ΔMTT [2],0.0008944
same,CSP G45,hRpn13_ΔMTT [2],0.003715
same,CSP G67,hRpn13_ΔMTT [2],0.005899
same,CSP G91,hRpn13_ΔMTT [2],0.001673
same,CSP G101,hRpn13_ΔMTT [2],0.001789
same,CSP G135,hRpn13_ΔMTT [2],0.002049
same,CSP G138,hRpn13_ΔMTT [2],0.002049
same,CSP G141,hRpn13_ΔMTT [2],0.001789
same,CSP G144,hRpn13_ΔMTT [2],0.0008944
same,CSP H58,hRpn13_ΔMTT [2],0.00743
same,CSP H120,hRpn13_ΔMTT [2],0.04026
same,CSP H145,hRpn13_ΔMTT [2],0.04954
same,CSP I49,hRpn13_ΔMTT [2],0.003286
same,CSP I57,hRpn13_ΔMTT [2],0.003286
same,CSP I75,hRpn13_ΔMTT [2],0
same,CSP K21,hRpn13_ΔMTT [2],0.001095
same,CSP K30,hRpn13_ΔMTT [2],0.007668
same,CSP K34,hRpn13_ΔMTT [2],0.002049
same,CSP K42,hRpn13_ΔMTT [2],0.002191
same,CSP K62,hRpn13_ΔMTT [2],0.001789
same,CSP K83,hRpn13_ΔMTT [2],0.00634
same,CSP K97,hRpn13_ΔMTT [2],0.001
same,CSP K99,hRpn13_ΔMTT [2],0.002049
same,CSP K103,hRpn13_ΔMTT [2],0.001673
same,CSP K113,hRpn13_ΔMTT [2],0.004472
same,CSP K123,hRpn13_ΔMTT [2],0.00743
same,CSP L7,hRpn13_ΔMTT [2],0.001
same,CSP L11,hRpn13_ΔMTT [2],0.0008944
same,CSP L23,hRpn13_ΔMTT [2],0.001095
same,CSP L33,hRpn13_ΔMTT [2],0.002408
same,CSP L46,hRpn13_ΔMTT [2],0.002049
same,CSP L56,hRpn13_ΔMTT [2],0.004099
same,CSP L73,hRpn13_ΔMTT [2],0.002049
same,CSP L96,hRpn13_ΔMTT [2],0.0004472
same,CSP L105,hRpn13_ΔMTT [2],0.001095
same,CSP L128,hRpn13_ΔMTT [2],0.003131
same,CSP L137,hRpn13_ΔMTT [2],0.001673
same,CSP L147,hRpn13_ΔMTT [2],0.004494
same,CSP L150,hRpn13_ΔMTT [2],0.001673
same,CSP M31,hRpn13_ΔMTT [2],0
same,CSP M109,hRpn13_ΔMTT [2],0.003286
same,CSP M133,hRpn13_ΔMTT [2],0.002
same,CSP N20,hRpn13_ΔMTT [2],0
same,CSP N68,hRpn13_ΔMTT [2],0.001789
same,CSP N125,hRpn13_ΔMTT [2],0.003347
same,CSP N129,hRpn13_ΔMTT [2],0.003
same,CSP N130,hRpn13_ΔMTT [2],0.002683
same,CSP Q50,hRpn13_ΔMTT [2],0.001095
same,CSP Q51,hRpn13_ΔMTT [2],0.001
same,CSP Q87,hRpn13_ΔMTT [2],0.008295
same,CSP R16,hRpn13_ΔMTT [2],0
same,CSP R27,hRpn13_ΔMTT [2],0.008112
same,CSP R43,hRpn13_ΔMTT [2],0.0008944
same,CSP R64,hRpn13_ΔMTT [2],0.003
same,CSP R84,hRpn13_ΔMTT [2],0
same,CSP R92 backbone,hRpn13_ΔMTT [2],0.002449
same,CSP R92 sidechain,hRpn13_ΔMTT [2],0.01312
same,CSP R104,hRpn13_ΔMTT [2],0.004099
same,CSP R122,hRpn13_ΔMTT [2],0.006768
same,CSP S4,hRpn13_ΔMTT [2],0.003715
same,CSP S10,hRpn13_ΔMTT [2],0.001
same,CSP S15,hRpn13_ΔMTT [2],0.002236
same,CSP S19,hRpn13_ΔMTT [2],0.002049
same,CSP S32,hRpn13_ΔMTT [2],0.001095
same,CSP S55,hRpn13_ΔMTT [2],0.001342
same,CSP S66,hRpn13_ΔMTT [2],0.001
same,CSP S102,hRpn13_ΔMTT [2],0.001342
same,CSP S140,hRpn13_ΔMTT [2],0.001095
same,CSP S142,hRpn13_ΔMTT [2],0.001342
same,CSP S143,hRpn13_ΔMTT [2],0.002049
same,CSP S148,hRpn13_ΔMTT [2],0.0004472
same,CSP T36,hRpn13_ΔMTT [2],0.001342
same,CSP T37,hRpn13_ΔMTT [2],0.002191
same,CSP T39,hRpn13_ΔMTT [2],0.002683
same,CSP T52,hRpn13_ΔMTT [2],0.001095
same,CSP T65,hRpn13_ΔMTT [2],0.001342
same,CSP T114,hRpn13_ΔMTT [2],0.01524
same,CSP V12,hRpn13_ΔMTT [2],0.002049
same,CSP V24,hRpn13_ΔMTT [2],0
same,CSP V47,hRpn13_ΔMTT [2],0.002683
same,CSP V69,hRpn13_ΔMTT [2],0.003715
same,CSP V93,hRpn13_ΔMTT [2],0.006542
same,CSP V95,hRpn13_ΔMTT [2],0.003131
same,CSP V124,hRpn13_ΔMTT [2],0.007759
same,CSP W61,hRpn13_ΔMTT [2],0.009165
same,CSP W108,hRpn13_ΔMTT [2],0.004025
same,CSP Y22,hRpn13_ΔMTT [2],0.001095
same,CSP Y48,hRpn13_ΔMTT [2],0.002864
same,CSP Y94,hRpn13_ΔMTT [2],0.002449
same,CSP Y127,hRpn13_ΔMTT [2],0.004382
